Test results from patent US20230270114A1, “FUNGICIDAL COMPOSITIONS” (SYNGENTA CROP PROTECTION AG, priority 2020, published 2023).
Where two headings read alike, the source gives them in different places.

Legend:
[1] = test system: Magnaporthe grisea (Pyricularia oryzae); experiment: whole plant or invertebrate; type: in vivo; details: foliar, read-out: control of Magnaporthe grisea
[2] = test system: Puccinia recondita f. sp. tritici; type: in vivo; details: foliar, wheat leaf disc preventative, inoculated 1 day after application, compared to untreated control
[3] = test system: Mycosphaerella graminicola (Septoria tritici); experiment: Example A14: Mycosphaerella graminicola (Septoria tritici) / liquid culture (Septoria blotch); type: cell-based; details: Zymoseptoria tritici; read-out: control of Mycosphaerella graminicola
[4] = test system: Glomerella lagenarium (Colletotrichum lagenarium); experiment: Example A3: Glomerella lagenarium (Colletotrichum lagenarium) / liquid culture (anthracnose); type: cell-based; details: Colletotrichum orbiculare; read-out: control of Glomerella lagenarium
[5] = test system: Monographella nivalis (Microdochium nivale); experiment: Example A6: Monographella nivalis (Microdochium nivale) / liquid culture (foot rot cereals); type: cell-based; details: read-out: control of Monographella nivalis
Pyrenophora teres = experiment: Example A12: Pyrenophora teres / barley / leaf disc preventative (net blotch); type: in vivo; details: foliar, inoculated 2 days after application, compared to untreated control
Alternaria solani = experiment: Example A1: Alternaria solani / tomato / leaf disc (early blight); type: in vivo; details: foliar, tomato leaf disks inoculated 2 days after application, compared to untreated control
[6] = test system: Mycosphaerella arachidis (Cercospora arachidicola); experiment: Example A7: Mycosphaerella arachidis (Cercospora arachidicola) / liquid culture (early leaf spot); type: cell-based; details: read-out: control of Mycosphaerella arachidis
[7] = test system: Puccinia recondita f. sp. tritici; type: in vivo; details: foliar, 24 h, wheat leaf disc curative, applied 1 day after inoculation, compared to untreated control
Phakopsora pachyrhizi = experiment: Example A8: Phakopsora pachyrhizi / soybean / preventative (soybean rust); type: in vivo; details: foliar, soybean leaf disks preventative, inoculated one day after application, compared to untreated control

COC(=O)N(c1cc(F)nc(F)c1)c1nc(C(=O)NC2CCC2(C)C)c(C)s1 (stereo not shown) [X.32, methyl N-(2,6-difluoro-4-pyridyl)-N-[4-[(2,2-dimethylcyclobutyl)carbamoyl]-5-methyl-thiazol-2-yl]carbamate]
≥ 80%: pest or weed control at 200 ppm [1]

COC(=O)OC(C)C(=O)N(c1cc(F)nc(F)c1)c1nc(C(=O)NC2CCC23CCCC3)c(C)s1 (stereo not shown) [X.03, [2-[(2,6-difluoro-4-pyridyl)-[5-methyl-4-(spiro[3.4]octan-3-ylcarbamoyl)thiazol-2-yl]amino]-1-methyl-2-oxo-ethyl] methyl carbonate]
≥ 80%: pest or weed control at 200 ppm [2] | pest or weed control at 200 ppm [1] | inhibition of growth at 20 ppm [3] | inhibition of growth at 20 ppm [4] | inhibition of growth at 20 ppm [5] | pest or weed control at 200 ppm (Pyrenophora teres)

CCOC(=O)OC(C)C(=O)N(c1cc(F)nc(F)c1)c1nc(C(=O)NC2CCC2)c(C)s1 (stereo not shown) [X.02, [2-[[4-(cyclobutylcarbamoyl)-5-methyl-thiazol-2-yl]-(2,6-difluoro-4-pyridyl)amino]-1-methyl-2-oxo-ethyl] ethyl carbonate]
≥ 80%: pest or weed control at 200 ppm [2] | pest or weed control at 200 ppm [1]

Cc1sc(N(C(=O)Oc2ccccc2)c2cc(F)nc(F)c2)nc1C(=O)NC1CCC1(C)C (stereo not shown) [X.26, phenyl N-(2,6-difluoro-4-pyridyl)-N-[4-[(2,2-dimethylcyclobutyl)carbamoyl]-5-methyl-thiazol-2-yl]carbamate]
≥ 80%: pest or weed control at 200 ppm [1] | inhibition of growth at 20 ppm [5]

Cc1sc(N(C(=O)CC(F)(F)F)c2cc(F)nc(F)c2)nc1C(=O)NC1CCC1(C)C (stereo not shown) [X.21, 2-[(2,6-difluoro-4-pyridyl)-(3,3,3-trifluoropropanoyl)amino]-N-(2,2-dimethylcyclobutyl)-5-methyl-thiazole-4-carboxamide]
≥ 80%: pest or weed control at 200 ppm [2] | pest or weed control at 200 ppm [1] | inhibition of growth at 20 ppm [3] | pest or weed control at 200 ppm (Alternaria solani) | inhibition of growth at 20 ppm [6] | inhibition of growth at 20 ppm [4] | inhibition of growth at 20 ppm [5] | pest or weed control at 200 ppm [7]

CCOC(=O)OC(C)C(=O)N(c1cc(F)nc(F)c1)c1nc(C(=O)NC2CCC23CCCC3)c(C)s1 (stereo not shown) [X.04, [2-[(2,6-difluoro-4-pyridyl)-[5-methyl-4-(spiro[3.4]octan-3-ylcarbamoyl)thiazol-2-yl]amino]-1-methyl-2-oxo-ethyl] ethyl carbonate]
≥ 80%: pest or weed control at 200 ppm [2] | pest or weed control at 200 ppm [1] | inhibition of growth at 20 ppm [3] | pest or weed control at 200 ppm (Alternaria solani) | inhibition of growth at 20 ppm [6] | inhibition of growth at 20 ppm [4] | inhibition of growth at 20 ppm [5] | pest or weed control at 200 ppm (Pyrenophora teres)

CCN(CC)C(=O)N(c1cc(F)nc(F)c1)c1nc(C(=O)NC2CCC2(C)C)c(C)s1 (stereo not shown) [X.16, 2-[diethylcarbamoyl-(2,6-difluoro-4-pyridyl)amino]-N-(2,2-dimethylcyclobutyl)-5-methyl-thiazole-4-carboxamide]
≥ 80%: pest or weed control at 200 ppm [1] | inhibition of growth at 20 ppm [4] | inhibition of growth at 20 ppm [5]

CC(=O)OC(C)C(=O)N(c1cc(F)nc(F)c1)c1nc(C(=O)NC2CCC23CCCC3)c(C)s1 (stereo not shown) [X.01, [2-[(2,6-difluoro-4-pyridyl)-[5-methyl-4-(spiro[3.4]octan-3-ylcarbamoyl)thiazol-2-yl]amino]-1-methyl-2-oxo-ethyl] acetate]
≥ 80%: pest or weed control at 200 ppm [2] | pest or weed control at 200 ppm [1] | inhibition of growth at 20 ppm [3] | pest or weed control at 200 ppm (Alternaria solani) | inhibition of growth at 20 ppm [4] | inhibition of growth at 20 ppm [5] | pest or weed control at 200 ppm (Pyrenophora teres)

COC(C)C(=O)N(c1cc(F)nc(F)c1)c1nc(C(=O)NC2CCC2)c(C)s1 (stereo not shown) [X.07, N-cyclobutyl-2-[(2,6-difluoro-4-pyridyl)-(2-methoxypropanoyl)amino]-5-methylthiazole-4-carboxamide]
≥ 80%: pest or weed control at 200 ppm [2] | pest or weed control at 200 ppm [1] | pest or weed control at 200 ppm (Phakopsora pachyrhizi)

Cc1sc(N(C(=O)C(C)O)c2cc(F)nc(F)c2)nc1C(=O)NC1CCC12CCCC2 (stereo not shown) [X.05, 2-[(2,6-difluoro-4-pyridyl)-(2-hydroxypropanoyl)amino]-5-methyl-N-spiro[3.4]octan-3-yl-thiazole-4-carboxamide]
≥ 80%: pest or weed control at 200 ppm [2] | pest or weed control at 200 ppm [1] | inhibition of growth at 20 ppm [3] | inhibition of growth at 20 ppm [4] | inhibition of growth at 20 ppm [5]

CC(=O)N(c1cc(F)nc(F)c1)c1nc(C(=O)NC2CCC2)c(C)s1 [X.13, 2-[acetyl-(2,6-difluoro-4-pyridyl)amino]-N-cyclobutyl-5-methyl-thiazole-4-carboxamide]
≥ 80%: pest or weed control at 200 ppm [2] | pest or weed control at 200 ppm [1]

Cc1sc(N(C(=O)c2cccs2)c2cc(F)nc(F)c2)nc1C(=O)NC1CCC1(C)C (stereo not shown) [X.31, 2-[(2,6-difluoro-4-pyridyl)-(thiophene-2-carbonyl)amino]-N-(2,2-dimethylcyclobutyl)-5-methyl-thiazole-4-carboxamide]
≥ 80%: pest or weed control at 200 ppm [1] | inhibition of growth at 20 ppm [5]

COc1sc(N(C(C)=O)c2cc(F)nc(F)c2)nc1C(=O)NC1CCC12CCCC2 (stereo not shown) [X.10, 2-[acetyl-(2,6-difluoro-4-pyridyl)amino]-5-methoxy-N-spiro[3.4]octan-3-yl-thiazole-4-carboxamide]
≥ 80%: pest or weed control at 200 ppm [1] | pest or weed control at 200 ppm (Pyrenophora teres)

COCC(=O)N(c1cc(F)nc(F)c1)c1nc(C(=O)NC2CCC2)c(C)s1 [X.12, N-cyclobutyl-2-[(2,6-difluoro-4-pyridyl)-(2-methoxyacetyl)amino]-5-methyl-thiazole-4-carboxamide]
≥ 80%: pest or weed control at 200 ppm [2] | pest or weed control at 200 ppm [1] | inhibition of growth at 20 ppm [5] | pest or weed control at 200 ppm (Pyrenophora teres)

Cc1sc(N(C(=O)c2ccco2)c2cc(F)nc(F)c2)nc1C(=O)NC1CCC1(C)C (stereo not shown) [X.19, 2-[(2,6-difluoro-4-pyridyl)-(furan-2-carbonyl)amino]-N-(2,2-dimethylcyclobutyl)-5-methyl-thiazole-4-carboxamide]
≥ 80%: pest or weed control at 200 ppm [2] | pest or weed control at 200 ppm [1]

COC(=O)CCC(=O)N(c1cc(F)nc(F)c1)c1nc(C(=O)NC2CCC2(C)C)c(C)s1 (stereo not shown) [X.23, methyl 4-[(2,6-difluoro-4-pyridyl)-[4-[(2,2-dimethylcyclobutyl)carbamoyl]-5-methyl-thiazol-2-yl]amino]-4-oxo-butanoate]
≥ 80%: pest or weed control at 200 ppm [2] | pest or weed control at 200 ppm [1] | pest or weed control at 200 ppm (Alternaria solani) | inhibition of growth at 20 ppm [4] | inhibition of growth at 20 ppm [5] | pest or weed control at 200 ppm [7] | pest or weed control at 200 ppm (Pyrenophora teres)

COCCOC(=O)N(c1cc(F)nc(F)c1)c1nc(C(=O)NC2CCC2(C)C)c(C)s1 (stereo not shown) [X.28, 2-methoxyethyl N-(2,6-difluoro-4-pyridyl)-N-[4-[(2,2-dimethylcyclobutyl)carbamoyl]-5-methyl-thiazol-2-yl]carbamate]
≥ 80%: pest or weed control at 200 ppm [2] | pest or weed control at 200 ppm [1] | inhibition of growth at 20 ppm [5] | pest or weed control at 200 ppm [7]

Cc1sc(N(C(=O)Cc2ccccc2)c2cc(F)nc(F)c2)nc1C(=O)NC1CCC1(C)C (stereo not shown) [X.09, 2-[(2,6-difluoro-4-pyridyl)-(2-phenylacetyl)amino]-N-(2,2-dimethylcyclobutyl)-5-methyl-thiazole-4-carboxamide]
≥ 80%: pest or weed control at 200 ppm [2] | pest or weed control at 200 ppm [1] | inhibition of growth at 20 ppm [3] | pest or weed control at 200 ppm (Alternaria solani) | inhibition of growth at 20 ppm [4] | inhibition of growth at 20 ppm [5]

CC(=O)N(c1cc(F)nc(F)c1)c1nc(C(=O)NC2CCC23CCCC3)c(C)s1 (stereo not shown) [X.37, 2-[acetyl-(2,6-difluoro-4-pyridyl)amino]-5-methyl-N-spiro[3.4] octan-3-yl-thiazole-4-carboxamide]
≥ 80%: pest or weed control at 200 ppm [1] | pest or weed control at 200 ppm (Pyrenophora teres)
